Measured values: patent US20100190832A1, “Mechanism-based inhibitors of transthyretin amyloidosis: studies with biphenyl ethers and structural templates” (NATIONAL INSTITUTE OF IMMUNOLOGY., priority 2008, published 2010)
pIC50: −log10 of the molar value. Where two headings read alike, the source gives them in different places.

Biological target: T1, WT-TTR (Homo sapiens, UniProt P02766)
T1 construct: made in house
Assay: Stagnant acid-mediated TTR aggregation (fibril formation) assay, turbidity at 340 nm
Type: biochemical
Details: for remaining activity at 50 µM / remaining activity at 100 µM: 72 h; for remaining activity at 50 µM: read-out: % FF at 50 μM; for pIC50: Table 3, WT-TTR 7.2 μM, read-out: IC50
Description: Stagnant Acid-Mediated TTR Aggregation Assay.
After 1 h, the samples were diluted with 0.5 ml of 200 mM sodium acetate buffer containing 100 mM KCl and 1 mM EDTA. Samples after mild vortexing were incubated at 37° C. for the desired amount of time without stirring to evaluate the efficacy of the inhibitors. The extent of aggregation was probed by turbidity measurements at 340 nm using Tecan GENios microplate reader. […] The extent of TTR fibril formation in the absence of inhibitor was defined to be 100%. […] All experiments were done in triplicate. […] The IC50 was determined by plotting mean of % inhibition vs log and fitted to sigmoid equation:
The experiments were conducted at 25° C. After 1 h, the samples were diluted with 0.5 mL of 200 mM sodium acetate buffer pH 4.4 containing 100 mM KCl and 1 mM EDTA, vortexed, and incubated at 37° C. for 72 h. […] The stoichiometry of the binding of the inhibitors was determined by HPLC as described by Green et al., N. S. Palaninathan, S, L, Sacchettini, J. e. […] Dissociation constant of binding of these compounds to TTR was determined by fluorescence titration, and data were fitted into the Adair equation for two bind mg.

[1] = biphenyl ether 50 μM, WT-TTR 7.2 μM
[2] = pH 4.4, compound 100 μM, WT-TTR 7.2 μM, pH 4.4, 37° C., read-out: % FF
[3] = pH 4.4, compound 100 μM, WT-TTR 7.2 μM, pH 4.4, 37° C., read-out: % Inhibition

SMILES	remaining activity at 100 µM [2]	inhibition at 100 µM [3]	also measured
O=Cc1ccc(Oc2ccccc2)c(O)c1 [Compound 2]			remaining activity at 50 µM: 112%
COc1cc(CO)ccc1Oc1ccccc1 [Compound 3]			remaining activity at 50 µM: 61.2%
COc1cc(CO)ccc1Oc1ccc([N+](=O)[O-])cc1 [Compound 15]			remaining activity at 50 µM [1]: 89.5%
COc1cc(C=O)ccc1Oc1ccc([N+](=O)[O-])cc1[N+](=O)[O-] [Compound 16]			remaining activity at 50 µM [1]: 66%
O=Cc1ccc(Oc2ccc([N+](=O)[O-])cc2[N+](=O)[O-])c(O)c1 [Compound 17]			remaining activity at 50 µM: 40.5%; pIC50: 4.26
COc1cc(CCl)ccc1Oc1ccc([N+](=O)[O-])cc1[N+](=O)[O-] [Compound 18]			remaining activity at 50 µM [1]: 79%
COc1cc(CO)ccc1Oc1ccc([N+](=O)[O-])cc1[N+](=O)[O-] [Compound 19]			remaining activity at 50 µM: 28%; pIC50: 4.70
COc1cc(COC(C)=O)ccc1Oc1ccc([N+](=O)[O-])cc1[N+](=O)[O-] [Compound 20]			remaining activity at 50 µM [1]: 69%
COc1cc(C(=O)O)ccc1Oc1ccc([N+](=O)[O-])cc1[N+](=O)[O-] [Compound 21]			remaining activity at 50 µM: 48%; pIC50: 4.70
O=C(O)c1ccc(Oc2ccc([N+](=O)[O-])cc2[N+](=O)[O-])c(O)c1 [Compound 22]			remaining activity at 50 µM [1]: 75%
Oc1ccc(-c2nnc(S)o2)cc1 [Compound 0350-0159]	19.2%	80.8%	
Oc1ccccc1-c1nnc(S)o1 [Compound 0350-0160]	13.8%	86.2%	
Cc1ccc2nc(NC(=O)c3ccccc3O)sc2c1 [Compound 1300-0073]	368%	0%	
Nc1nc(F)cc(Oc2ccc(F)cc2)n1 [Compound 1544-0071]	84%	16%	
Nc1nc(F)cc(Oc2ccccc2F)n1 [Compound 1544-0078]	54.4%	45.6%	
CCc1ccc(Oc2cc(F)nc(N)n2)cc1 [Compound 1544-0079]	10.4%	9.71%	
Nc1nc(Cl)cc(Oc2ccccc2F)n1 [Compound 1545-0131]	52.4%	47.6%	
O=C1/C(=C\c2ccc(-c3ccc(Cl)cc3)o2)SC(=S)N1c1cccc(Cl)c1 [Compound 1934-0113]	107%	0%	

SMILES	remaining activity at 100 µM [2]	inhibition at 100 µM [3]	also measured
Cc1ccccc1C1=N/C(=C\c2sccc2C)C(=O)O1 [Compound 1989-9396]	115%	0%	
CCN1C(=O)/C(=C/c2ccc(N(CC)CC)cc2O)SC1=S [Compound 1996-0170]	177%	0%	
Cn1ncc(/N=C/c2ccccc2O)c1C(=O)N1CCOCC1 [Compound 2019-0006]	50%	50%	
O=C1/C(=C\c2ccco2)SC(=S)N1c1cccc(F)c1 [Compound 2027-0159]	340%	0%	
O=C(O)c1cccc(-c2ccc(/C=C3\SC(=S)N(c4cccc(C(F)(F)F)c4)C3=O)o2)c1 [Compound 2027-0438]	449%	0%	
COc1ccc(/C=C2\SC(=S)N(c3ccc(O)cc3)C2=O)cc1 [Compound 2189-0710]	281%	0%	
COc1cc(/C=C2\SC(=S)N(c3ccc(O)cc3)C2=O)ccc1O [Compound 2189-0711]	230%	0%	
O=C1/C(=C/c2ccc(Cl)cc2Cl)SC(=S)N1c1ccc(O)cc1 [Compound 2189-0835]	291%	0%	
O=C(O)CCCCCN1C(=O)/C(=C/c2c[nH]c3ccccc23)SC1=S [Compound 2279-3516]			remaining activity at 100 µM (pH 4.4, read-out: % FF): 126%; inhibition at 100 µM (pH 4.4): 0%
O=[N+]([O-])c1ccc(Cl)cc1Sc1nc2ccccc2s1 [Compound 2369-0691]	8.2%	91.8%	
O=C1NC(=S)S/C1=C\c1ccc(-c2cc(Cl)ccc2Cl)o1 [Compound 3062-0073]	286%	0%	
Cc1ccc(/C=c2/sc3nc4ccccc4n3c2=O)cc1 [Compound 3062-0586]	125%	0%	
O=c1/c(=C\c2ccccc2Cl)sc2nc3ccccc3n12 [Compound 3062-0592]	71%	29.1%	
O=C(Nc1nnc[nH]1)c1c(Cl)ccc(Cl)c1Cl [Compound 3232-0353]	11.5%	88.5%	
O=C1/C(=C\c2cccc(O)c2)SC(=S)N1c1ccc(F)cc1 [Compound 3232-1704]	309%	0%	
Cc1nc2c(ccc3ccccc32)c(O)c1CN1CCCC1 [Compound 3453-1335]	66.9%	33.1%	
Cc1nc2c(ccc3ccccc32)c(O)c1CN1CCOCC1 [Compound 3453-1337]	69.6%	30.4%	

The next lines start with results.

remaining activity at 100 µM [2]	inhibition at 100 µM [3]	SMILES	also measured
75.7%	24.3%	CCCCN1CCc2nc3c(ccc4ccccc43)c(O)c2C1 [Compound 3453-1352]	
105%	0%	Cc1nc2c(ccc3ccccc32)c(O)c1CN(C)Cc1ccccc1 [Compound 3453-1353]	
155%	0%	Cn1c(=O)c2c(nc(Oc3ccc(-n4cnnn4)cc3)n2C)n(C)c1=O [Compound 3615-0252]	
112%	0%	Nc1cc(O)nc(SCC(=O)N2CCOCC2)n1 [Compound 3996-0165]	
79.7%	20.3%	CCCCN(CC)Cc1c(C)nc2ccc(Cl)cc2c1O [Compound 4358-1230]	
81.8%	18.2%	Cc1nc2ccc(Cl)cc2c(O)c1CN1CCCC1 [Compound 4358-1240]	
114%	0%	Cc1nnc2c(Oc3ccc(Cl)cc3)nc3ccccc3n12 [Compound 5001-0261]	
68.9%	31.1%	Cc1ccc2nc(Nc3nc(O)c4ccccc4n3)nc(C)c2c1 [Compound 5594-0187]	
77.8%	22.3%	Cc1ccsc1/C=c1\sc2nc(-c3cccs3)nn2c1=O [Compound 5629-0544]	
96%	4.06%	Oc1ccc(Nc2nc(-c3ccc(Cl)cc3)nc3ccccc23)cc1 [Compound 5847-1646]	
20.3%	79.7%	O=C1CSC(c2ccc(Cl)cc2Cl)N1c1ccc(Cl)cc1 (stereo not shown) [Compound 8004-9890]	
	0%	O=C(c1cnc(Nc2ccc(F)cc2)c2ccccc12)n1ccnc1 [Compound C066-1627]	
32.1%	67.9%	O=C(O)CCc1nc(-c2cccs2)no1 [Compound C066-2523]	
89.5%	10.4%	O=C(Nc1c2c(nn1-c1cccc(Cl)c1)C[S+]([O-])C2)c1ccccc1F (stereo not shown) [Compound C077-0215]	
104%	0%	O=C(Nc1c2c(nn1-c1ccc(F)cc1)C[S+]([O-])C2)c1ccccc1F (stereo not shown) [Compound C077-0216]	
102%	0%	COc1ccc(NC(=S)N(CCCN2CCOCC2)Cc2cccs2)cc1 [Compound C087-0783]	
107%	0%	CCN(CC)CCCN(Cc1ccco1)C(=S)Nc1ccc(OC)cc1 [Compound C087-0785]	
98.6%	1.4%	COc1ccc(NC(=S)N(CCCN2CCOCC2)Cc2cccnc2)cc1 [Compound C087-0811]	
104%	0%	COc1ccccc1NC(=S)N(CCCN1CCCCCC1)Cc1cccs1 [Compound C087-0823]	
108%	0%	CCc1ccccc1NC(=S)N(CCN(C)C)Cc1cccs1 [Compound C087-0905]	
99.3%	0.7%	Fc1ccccc1NC(=S)N(CCCN1CCOCC1)Cc1cccnc1 [Compound C087-1168]	
86.7%	13.3%	FC(F)(F)c1cccc(NC(=S)N(CCCN2CCCCC2)Cc2cccs2)c1 [Compound C087-1176]	
156%	0%	O=C(c1cc(-c2ccc(Cl)s2)nc2ccccc12)N1CCOCC1 [Compound C136-0215]	
67.1%	32.9%	CSC1=NSC2=NC(=O)/C(=C\c3ccc(Cl)cc3)C(=N)N12 [Compound C146-0181]	
72.7%	27.3%	CSC1=NSC2=NC(=O)/C(=C\c3ccc(O)cc3)C(=N)N12 [Compound C146-0184]	
